Reference: patent US9834571B2, “Compounds for inhibiting cell proliferation in EGFR-driven cancers” (ARIAD Pharmaceuticals, Inc., priority 2012, dated 2017)

How the values were obtained:
[1] = target: human EGFR (native sequence) (Homo sapiens, UniProt P00533); assay: Kinase inhibitory activity against human EGFR (native sequence); type: biochemical; details: human EGFR native sequence; 10 μM ATP; read-out: IC50 for kinase inhibition, EGFR
Method in brief: (§1)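 Compounds were titrated over ten points starting at 3 μM, each point in singlicate, and kinase activity was measured in the presence of 10 μM ATP.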

EGFR L858R = EGFR L858R (Homo sapiens, UniProt P00533, L858R); assay: Kinase inhibitory activity against EGFR bearing the L858R mutation; type: biochemical; details: EGFR L858R; 10 μM ATP; read-out: IC50 for kinase inhibition, EGFR L858R
Chain of EGFR L858R (P00533 25-1210 L858R): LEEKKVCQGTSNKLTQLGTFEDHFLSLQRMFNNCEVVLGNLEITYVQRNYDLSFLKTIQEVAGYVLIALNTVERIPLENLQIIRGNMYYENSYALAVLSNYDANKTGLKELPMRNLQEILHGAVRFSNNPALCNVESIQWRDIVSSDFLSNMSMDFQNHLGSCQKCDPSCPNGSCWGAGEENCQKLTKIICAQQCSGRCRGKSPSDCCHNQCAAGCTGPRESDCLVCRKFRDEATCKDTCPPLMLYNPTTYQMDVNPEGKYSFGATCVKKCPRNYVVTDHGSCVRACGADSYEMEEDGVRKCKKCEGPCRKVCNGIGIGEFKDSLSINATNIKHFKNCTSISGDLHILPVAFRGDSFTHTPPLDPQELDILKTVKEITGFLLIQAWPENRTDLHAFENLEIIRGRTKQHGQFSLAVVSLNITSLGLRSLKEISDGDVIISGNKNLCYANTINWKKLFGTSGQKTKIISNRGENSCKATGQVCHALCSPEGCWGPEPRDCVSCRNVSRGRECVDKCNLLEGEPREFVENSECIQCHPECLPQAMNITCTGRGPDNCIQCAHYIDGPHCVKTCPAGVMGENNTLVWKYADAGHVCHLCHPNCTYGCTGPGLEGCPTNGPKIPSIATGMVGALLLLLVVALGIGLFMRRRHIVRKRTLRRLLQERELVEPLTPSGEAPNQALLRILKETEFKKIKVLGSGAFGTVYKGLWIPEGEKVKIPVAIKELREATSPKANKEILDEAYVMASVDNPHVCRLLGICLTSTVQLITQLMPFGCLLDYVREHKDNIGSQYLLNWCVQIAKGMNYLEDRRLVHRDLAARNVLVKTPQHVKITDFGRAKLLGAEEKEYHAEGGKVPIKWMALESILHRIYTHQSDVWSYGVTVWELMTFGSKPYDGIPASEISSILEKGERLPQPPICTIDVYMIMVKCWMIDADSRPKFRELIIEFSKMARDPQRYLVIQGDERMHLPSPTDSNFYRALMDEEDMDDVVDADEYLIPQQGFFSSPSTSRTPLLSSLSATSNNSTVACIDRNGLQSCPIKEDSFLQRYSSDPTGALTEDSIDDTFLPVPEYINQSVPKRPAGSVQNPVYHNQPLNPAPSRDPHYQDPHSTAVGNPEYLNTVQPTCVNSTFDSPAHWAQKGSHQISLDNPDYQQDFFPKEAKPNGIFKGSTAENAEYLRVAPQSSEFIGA
Method in brief: as §1

EGFR L858R/T790M = EGFR L858R/T790M (Homo sapiens, UniProt P00533, L858R/T790M); assay: Kinase inhibitory activity against EGFR bearing the L858R/T790M double mutation; type: biochemical; details: EGFR L858R/T790M double mutation; 10 μM ATP; read-out: IC50 for kinase inhibition, EGFR L858R T790M
Chain of EGFR L858R/T790M (P00533 25-1210 T790M/L858R): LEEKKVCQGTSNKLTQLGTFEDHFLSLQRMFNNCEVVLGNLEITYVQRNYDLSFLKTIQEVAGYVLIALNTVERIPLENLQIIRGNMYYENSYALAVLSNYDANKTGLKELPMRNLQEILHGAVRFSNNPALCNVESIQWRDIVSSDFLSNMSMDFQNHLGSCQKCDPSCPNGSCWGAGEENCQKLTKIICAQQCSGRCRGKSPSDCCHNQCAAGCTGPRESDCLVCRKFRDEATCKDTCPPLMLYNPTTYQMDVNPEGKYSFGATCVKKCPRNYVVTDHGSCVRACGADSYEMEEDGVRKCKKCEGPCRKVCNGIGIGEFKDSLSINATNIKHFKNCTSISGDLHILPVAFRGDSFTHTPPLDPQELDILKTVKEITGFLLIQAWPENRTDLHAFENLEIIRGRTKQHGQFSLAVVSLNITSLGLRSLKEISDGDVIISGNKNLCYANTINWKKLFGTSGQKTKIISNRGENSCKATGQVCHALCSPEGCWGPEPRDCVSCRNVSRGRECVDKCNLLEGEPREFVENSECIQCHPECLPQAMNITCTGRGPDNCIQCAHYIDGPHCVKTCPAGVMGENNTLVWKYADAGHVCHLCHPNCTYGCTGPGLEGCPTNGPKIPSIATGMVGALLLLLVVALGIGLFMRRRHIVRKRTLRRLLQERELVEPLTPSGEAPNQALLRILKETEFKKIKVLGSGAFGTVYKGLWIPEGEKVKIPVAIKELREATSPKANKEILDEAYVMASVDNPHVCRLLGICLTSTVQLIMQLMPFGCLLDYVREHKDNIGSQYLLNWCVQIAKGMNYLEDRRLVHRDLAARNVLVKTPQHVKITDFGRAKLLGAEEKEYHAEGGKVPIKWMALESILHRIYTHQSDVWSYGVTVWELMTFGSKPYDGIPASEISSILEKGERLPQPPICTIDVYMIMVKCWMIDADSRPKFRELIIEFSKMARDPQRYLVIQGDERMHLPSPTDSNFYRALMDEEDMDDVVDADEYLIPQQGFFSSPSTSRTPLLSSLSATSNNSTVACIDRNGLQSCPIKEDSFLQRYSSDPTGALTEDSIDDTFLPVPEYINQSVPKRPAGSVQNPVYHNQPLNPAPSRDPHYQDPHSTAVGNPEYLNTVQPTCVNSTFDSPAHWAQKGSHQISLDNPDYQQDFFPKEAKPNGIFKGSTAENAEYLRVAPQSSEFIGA
Method in brief: as §1

[2] = target: T1, BaF3 cells expressing the target EGFR mutations (Homo sapiens, UniProt P00533, T790M/L858R, cells depend on it); assay: Antiproliferative activity (MTT) against BaF3 cells expressing the target EGFR mutations; type: cell-based; details: BAF3 EGFR L858R-T790M PURO POOL cells, read-out: IC50, BAF3 EGFR L858R-T790M PURO POOL
T1 construct: IC50, BAF3 EGFR L858R-T790M PURO POOL; other: BAF3 EGFR L858R-T790M PURO POOL cells, MTT; IC50, BAF3 EGFR L858R-T790M PURO POOL; other: BAF3 EGFR L858R-T790M PURO POOL cells; MTT
T1 sequence (P00533 whole entry T790M/L858R): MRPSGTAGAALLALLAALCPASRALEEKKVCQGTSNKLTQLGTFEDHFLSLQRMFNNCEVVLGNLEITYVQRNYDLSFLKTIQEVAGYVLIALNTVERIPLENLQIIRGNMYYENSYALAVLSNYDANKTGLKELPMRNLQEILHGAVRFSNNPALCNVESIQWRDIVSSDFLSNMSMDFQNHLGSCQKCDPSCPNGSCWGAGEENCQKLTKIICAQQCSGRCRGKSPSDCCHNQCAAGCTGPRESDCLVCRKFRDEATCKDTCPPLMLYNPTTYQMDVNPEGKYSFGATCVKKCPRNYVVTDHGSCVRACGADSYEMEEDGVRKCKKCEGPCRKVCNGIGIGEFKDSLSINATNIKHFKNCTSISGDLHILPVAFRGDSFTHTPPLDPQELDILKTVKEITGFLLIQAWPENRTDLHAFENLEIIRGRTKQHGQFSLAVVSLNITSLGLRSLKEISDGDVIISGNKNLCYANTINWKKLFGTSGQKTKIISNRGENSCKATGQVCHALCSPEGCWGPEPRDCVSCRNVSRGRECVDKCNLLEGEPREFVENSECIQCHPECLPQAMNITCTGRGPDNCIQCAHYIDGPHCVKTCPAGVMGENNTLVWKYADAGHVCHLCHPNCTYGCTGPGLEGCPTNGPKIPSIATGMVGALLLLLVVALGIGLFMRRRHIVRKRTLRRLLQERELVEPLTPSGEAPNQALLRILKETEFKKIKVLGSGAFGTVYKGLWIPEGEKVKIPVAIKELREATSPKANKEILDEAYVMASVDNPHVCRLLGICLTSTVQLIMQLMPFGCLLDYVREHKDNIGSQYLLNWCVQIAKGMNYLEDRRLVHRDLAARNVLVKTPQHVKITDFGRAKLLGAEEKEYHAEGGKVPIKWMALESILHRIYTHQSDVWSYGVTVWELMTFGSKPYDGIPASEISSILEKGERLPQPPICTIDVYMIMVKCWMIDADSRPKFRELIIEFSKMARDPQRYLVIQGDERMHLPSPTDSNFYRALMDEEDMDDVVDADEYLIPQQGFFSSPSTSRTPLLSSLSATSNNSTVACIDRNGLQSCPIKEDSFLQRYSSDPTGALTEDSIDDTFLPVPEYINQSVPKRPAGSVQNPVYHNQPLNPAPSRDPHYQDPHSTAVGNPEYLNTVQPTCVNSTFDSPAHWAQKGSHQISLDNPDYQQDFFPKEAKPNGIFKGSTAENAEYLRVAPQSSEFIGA
Method in brief: (§2)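 Growth inhibition of EGFR-mutant BaF3 cells was assessed with an MTT assay. A BaF3 line expressing wildtype EGFR served as comparator.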

[3] = target: T2, BaF3 cells expressing the target EGFR mutations (Homo sapiens, UniProt P00533, T790M, cells depend on it, form not given); assay: as above; type: cell-based; details: BAF3 EGFR DEL T790M PURO POOL cells, read-out: IC50, BAF3 EGFR DEL T790M PURO POOL
T2 construct: IC50, BAF3 EGFR DEL T790M PURO POOL; other: BAF3 EGFR DEL T790M PURO POOL cells, MTT; other: BAF3 EGFR DEL T790M PURO POOL cells; MTT
T2 sequence (P00533 with tags, fused parts or gaps DEL746-750/T790M, form open): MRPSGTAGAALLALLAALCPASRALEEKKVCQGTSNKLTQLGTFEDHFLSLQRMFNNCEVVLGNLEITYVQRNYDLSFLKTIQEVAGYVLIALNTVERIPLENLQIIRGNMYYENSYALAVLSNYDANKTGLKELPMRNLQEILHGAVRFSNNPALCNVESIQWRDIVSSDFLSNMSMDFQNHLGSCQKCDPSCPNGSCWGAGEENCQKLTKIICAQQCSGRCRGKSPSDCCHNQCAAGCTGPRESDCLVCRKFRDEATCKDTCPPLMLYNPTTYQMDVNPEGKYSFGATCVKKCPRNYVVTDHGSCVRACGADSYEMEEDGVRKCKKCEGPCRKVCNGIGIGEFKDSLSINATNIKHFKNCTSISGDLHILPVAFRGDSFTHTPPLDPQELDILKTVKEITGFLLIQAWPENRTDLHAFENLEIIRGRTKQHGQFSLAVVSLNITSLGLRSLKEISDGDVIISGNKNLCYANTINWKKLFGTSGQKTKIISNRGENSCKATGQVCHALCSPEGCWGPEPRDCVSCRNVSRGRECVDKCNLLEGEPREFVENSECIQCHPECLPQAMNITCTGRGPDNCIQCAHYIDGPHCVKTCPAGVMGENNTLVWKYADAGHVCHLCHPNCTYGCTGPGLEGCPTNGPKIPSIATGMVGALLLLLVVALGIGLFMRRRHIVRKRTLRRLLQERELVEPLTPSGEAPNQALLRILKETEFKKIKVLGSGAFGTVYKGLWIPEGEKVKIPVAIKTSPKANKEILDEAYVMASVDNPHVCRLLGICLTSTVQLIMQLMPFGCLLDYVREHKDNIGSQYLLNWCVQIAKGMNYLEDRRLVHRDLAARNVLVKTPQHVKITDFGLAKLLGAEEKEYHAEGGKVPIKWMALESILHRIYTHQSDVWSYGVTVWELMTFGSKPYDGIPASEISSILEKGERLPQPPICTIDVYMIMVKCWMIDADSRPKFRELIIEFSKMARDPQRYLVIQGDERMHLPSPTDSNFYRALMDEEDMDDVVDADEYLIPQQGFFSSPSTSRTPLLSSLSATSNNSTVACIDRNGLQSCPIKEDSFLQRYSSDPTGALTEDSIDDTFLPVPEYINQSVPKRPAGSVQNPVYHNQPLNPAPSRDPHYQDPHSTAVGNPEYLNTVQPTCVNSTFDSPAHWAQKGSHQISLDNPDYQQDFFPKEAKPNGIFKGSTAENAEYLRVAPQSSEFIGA
Method in brief: as §2

[4] = system: BaF3 cells expressing wildtype EGFR; assay: Antiproliferative activity (MTT) against control BaF3 cells expressing wildtype EGFR; type: cell-based; details: Mus musculus, BAF3 PARENTAL cells (control)
Method in brief: as §2

C=CC(=O)Nc1cc(Nc2ncc(Cl)c(Nc3ccccc3P(C)(C)=O)n2)c(OC)cc1N1CCC(N2CCC(O)CC2)C1 (stereo not drawn) [Example 39, N-(5-((5-chloro-4-((2-(dimethylphosphoryl)phenyl)amino)pyrimidin-2-yl)amino)-2-(3-(4-hydroxypiperidin-1-yl)pyrrolidin-1-yl)-4-methoxyphenyl)acrylamide]
IC50 [1]: < 50 nM
IC50 (EGFR L858R): < 50 nM
IC50 (EGFR L858R/T790M): < 50 nM
GI50 [2]: ≥ 250 nM
GI50 [3]: 101 to 250 nM
IC50 [4]: ≥ 250 nM

C=CC(=O)Nc1cc(Nc2ncc(Cl)c(Nc3ccccc3P(C)(C)=O)n2)c(OC)cc1N1CCC(N2CCN(CCO)CC2)C1 (stereo not drawn) [Example 40, N-(5-((5-chloro-4-((2-(dimethylphosphoryl)phenyl)amino)pyrimidin-2-yl)amino)-2-(3-(4-(2-hydroxyethyl)piperazin-1-yl)pyrrolidin-1-yl)-4-methoxyphenyl)acrylamide]
IC50 [1]: < 50 nM
IC50 (EGFR L858R): < 50 nM
IC50 (EGFR L858R/T790M): < 50 nM
GI50 [2]: ≥ 250 nM
GI50 [3]: ≥ 250 nM
IC50 [4]: ≥ 250 nM

C=CC(=O)Nc1cc(Nc2ncc(Cl)c(Nc3ccccc3P(C)(C)=O)n2)c(OC)cc1N1CCC(N(C)CCOC)C1 (stereo not drawn) [Example 41, N-(5-((5-chloro-4-((2-(dimethylphosphoryl)phenyl)amino)pyrimidin-2-yl)amino)-4-methoxy-2-(3-((2-methoxyethyl)(methyl)amino)pyrrolidin-1-yl)phenyl)acrylamide]
IC50 [1]: < 50 nM
IC50 (EGFR L858R): < 50 nM
IC50 (EGFR L858R/T790M): < 50 nM
GI50 [2]: < 50 nM
GI50 [3]: < 50 nM
IC50 [4]: ≥ 250 nM

C=C(CN1CCCC1)C(=O)Nc1ccc(OC)c(Nc2ncc(Cl)c(Nc3ccccc3P(C)(C)=O)n2)c1 [Example 42, N-(3-((5-chloro-4-((2-(dimethylphosphoryl)phenyl)amino)pyrimidin-2-yl)amino)-4-methoxyphenyl)-2-(pyrrolidin-1-ylmethyl)acrylamide]
IC50 [1]: < 50 nM
IC50 (EGFR L858R): < 50 nM
IC50 (EGFR L858R/T790M): < 50 nM
GI50 [2]: < 50 nM
GI50 [3]: < 50 nM
IC50 [4]: ≥ 250 nM

C=C(CN1CCCCC1)C(=O)Nc1ccc(OC)c(Nc2ncc(Cl)c(Nc3ccccc3P(C)(C)=O)n2)c1 [Example 43, N-(3-((5-chloro-4-((2-(dimethylphosphoryl)phenyl)amino)pyrimidin-2-yl)amino)-4-methoxyphenyl)-2-(piperidin-1-ylmethyl)acrylamide]
IC50 [1]: < 50 nM
IC50 (EGFR L858R): < 50 nM
IC50 (EGFR L858R/T790M): < 50 nM
GI50 [2]: < 50 nM
GI50 [3]: < 50 nM
IC50 [4]: ≥ 250 nM

C=C(CN1CCN(S(C)(=O)=O)CC1)C(=O)Nc1ccc(OC)c(Nc2ncc(Cl)c(Nc3ccccc3P(C)(C)=O)n2)c1 [Example 44, N-(3-((5-chloro-4-((2-(dimethylphosphoryl)phenyl)amino)pyrimidin-2-yl)amino)-4-methoxyphenyl)-2-((4-(methylsulfonyl)piperazin-1-yl)methyl)acrylamide]
IC50 [1]: < 50 nM
IC50 (EGFR L858R): < 50 nM
IC50 (EGFR L858R/T790M): < 50 nM
GI50 [2]: < 50 nM
GI50 [3]: < 50 nM
IC50 [4]: ≥ 250 nM

C=C(CN1CCC(N2CCN(C)CC2)CC1)C(=O)Nc1ccc(OC)c(Nc2ncc(Cl)c(Nc3ccccc3P(C)(C)=O)n2)c1 [Example 45, N-(3-((5-chloro-4-((2-(dimethylphosphoryl)phenyl)amino)pyrimidin-2-yl)amino)-4-methoxyphenyl)-2-((4-(4-methylpiperazin-1-yl)piperidin-1-yl)methyl)acrylamide]
IC50 [1]: < 50 nM
IC50 (EGFR L858R): < 50 nM
IC50 (EGFR L858R/T790M): < 50 nM
GI50 [2]: < 50 nM
GI50 [3]: < 50 nM
IC50 [4]: ≥ 250 nM

C=C(CN1CCS(=O)(=O)CC1)C(=O)Nc1ccc(OC)c(Nc2ncc(Cl)c(Nc3ccccc3P(C)(C)=O)n2)c1 [Example 46, N-(3-((5-chloro-4-((2-(dimethylphosphoryl)phenyl)amino)pyrimidin-2-yl)amino)-4-methoxyphenyl)-2-((1,1-dioxidothiomorpholino)methyl)acrylamide]
IC50 [1]: ≥ 250 nM
IC50 (EGFR L858R): 50 to 100 nM
IC50 (EGFR L858R/T790M): < 50 nM
GI50 [2]: ≥ 250 nM
GI50 [3]: ≥ 250 nM
IC50 [4]: ≥ 250 nM

C=C(CN1CCNC(=O)C1)C(=O)Nc1ccc(OC)c(Nc2ncc(Cl)c(Nc3ccccc3P(C)(C)=O)n2)c1 [Example 47, N-(3-((5-chloro-4-((2-(dimethylphosphoryl)phenyl)amino)pyrimidin-2-yl)amino)-4-methoxyphenyl)-2-((3-oxopiperazin-1-yl)methyl)acrylamide]
IC50 [1]: < 50 nM
IC50 (EGFR L858R): < 50 nM
IC50 (EGFR L858R/T790M): < 50 nM
GI50 [2]: ≥ 250 nM
GI50 [3]: 101 to 250 nM
IC50 [4]: ≥ 250 nM

C=C(CN1CCOCC1)C(=O)Nc1ccc(OC)c(Nc2ncc(Cl)c(Nc3ccccc3P(C)(C)=O)n2)c1 [Example 48, N-(3-((5-chloro-4-((2-(dimethylphosphoryl)phenyl)amino)pyrimidin-2-yl)amino)-4-methoxyphenyl)-2-(morpholinomethyl)acrylamide]
IC50 [1]: < 50 nM
IC50 (EGFR L858R): < 50 nM
IC50 (EGFR L858R/T790M): < 50 nM
GI50 [2]: < 50 nM
GI50 [3]: < 50 nM
IC50 [4]: ≥ 250 nM

C=C(CN1CCN(C)CC1)C(=O)Nc1ccc(OC)c(Nc2ncc(Cl)c(Nc3ccccc3P(C)(C)=O)n2)c1 [Example 49, N-(3-((5-chloro-4-((2-(dimethylphosphoryl)phenyl)amino)pyrimidin-2-yl)amino)-4-methoxyphenyl)-2-((4-methylpiperazin-1-yl)methyl)acrylamide]
IC50 [1]: < 50 nM
IC50 (EGFR L858R): < 50 nM
IC50 (EGFR L858R/T790M): < 50 nM
GI50 [2]: < 50 nM
GI50 [3]: < 50 nM
IC50 [4]: ≥ 250 nM

C=C(CN1CCN(C(C)C)CC1)C(=O)Nc1ccc(OC)c(Nc2ncc(Cl)c(Nc3ccccc3P(C)(C)=O)n2)c1 [Example 50, N-(3-((5-chloro-4-((2-(dimethylphosphoryl)phenyl)amino)pyrimidin-2-yl)amino)-4-methoxyphenyl)-2-((4-isopropylpiperazin-1-yl)methyl)acrylamide]
IC50 [1]: 50 to 100 nM
IC50 (EGFR L858R): < 50 nM
IC50 (EGFR L858R/T790M): < 50 nM
GI50 [2]: < 50 nM
GI50 [3]: < 50 nM
IC50 [4]: ≥ 250 nM

C=C(CN1CCC(N2CCOCC2)CC1)C(=O)Nc1ccc(OC)c(Nc2ncc(Cl)c(Nc3ccccc3P(C)(C)=O)n2)c1 [Example 51, N-(3-((5-chloro-4-((2-(dimethylphosphoryl)phenyl)amino)pyrimidin-2-yl)amino)-4-methoxyphenyl)-2-((4-morpholinopiperidin-1-yl)methyl)acrylamide]
IC50 [1]: < 50 nM
IC50 (EGFR L858R): < 50 nM
IC50 (EGFR L858R/T790M): < 50 nM
GI50 [2]: < 50 nM
GI50 [3]: < 50 nM
IC50 [4]: ≥ 250 nM

C=C(CN1CCN(CCO)CC1)C(=O)Nc1ccc(OC)c(Nc2ncc(Cl)c(Nc3ccccc3P(C)(C)=O)n2)c1 [Example 52, N-(3-((5-chloro-4-((2-(dimethylphosphoryl)phenyl)amino)pyrimidin-2-yl)amino)-4-methoxyphenyl)-2-((4-(2-hydroxyethyl)piperazin-1-yl)methyl)acrylamide]
IC50 [1]: < 50 nM
IC50 (EGFR L858R): < 50 nM
IC50 (EGFR L858R/T790M): < 50 nM
GI50 [2]: < 50 nM
GI50 [3]: < 50 nM
IC50 [4]: ≥ 250 nM

C=C(CN1CCC(O)C1)C(=O)Nc1ccc(OC)c(Nc2ncc(Cl)c(Nc3ccccc3P(C)(C)=O)n2)c1 (stereo not drawn) [Example 53, N-(3-((5-chloro-4-((2-(dimethylphosphoryl)phenyl)amino)pyrimidin-2-yl)amino)-4-methoxyphenyl)-2-((3-hydroxypyrrolidin-1-yl)methyl)acrylamide]
IC50 [1]: < 50 nM
IC50 (EGFR L858R): < 50 nM
IC50 (EGFR L858R/T790M): < 50 nM
GI50 [2]: < 50 nM
GI50 [3]: < 50 nM
IC50 [4]: ≥ 250 nM

C=CC(=O)Nc1cc(Nc2ncc(Cl)c(Nc3ccccc3P(C)(C)=O)n2)c(OC)cc1CN1CCN(C)CC1 [Example 55, N-(5-((5-chloro-4-((2-(dimethylphosphoryl)phenyl)amino)pyrimidin-2-yl)amino)-4-methoxy-2-((4-methylpiperazin-1-yl)methyl)phenyl)acrylamide]
IC50 [1]: < 50 nM
IC50 (EGFR L858R): < 50 nM
IC50 (EGFR L858R/T790M): < 50 nM
GI50 [2]: 50 to 100 nM
GI50 [3]: < 50 nM
IC50 [4]: ≥ 250 nM

C=CC(=O)Nc1cc(Nc2ncc(Cl)c(Nc3ccccc3P(C)(C)=O)n2)c(OC)cc1C(=O)N1CCN(C)CC1 [Example 56, N-(5-((5-chloro-4-((2-(dimethylphosphoryl)phenyl)amino)pyrimidin-2-yl)amino)-4-methoxy-2-(4-methylpiperazine-1-carbonyl)phenyl)acrylamide]
IC50 [1]: 101 to 250 nM
IC50 (EGFR L858R): < 50 nM
IC50 (EGFR L858R/T790M): < 50 nM
GI50 [2]: ≥ 250 nM
GI50 [3]: ≥ 250 nM
IC50 [4]: ≥ 250 nM
